# According to PubChem BioAssay (NCI):
# Values joined by “and” are separate entries in the source; they are usually repeats but may differ in a detail not shown here. Equal entries are not always repeated.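 Assay format: 96-well plates, 48-hour exposure. GI50 is the concentration that inhibits growth by half. TGI: total growth inhibition.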
# Legend:
# Experiment in all cases: NCI-60 cell line screen, 48 h
# HCT-15 colon = test system: HCT-15 colon
# K-562 leukemia = test system: K-562 leukemia
# UACC-62 melanoma = test system: UACC-62 melanoma
# OVCAR-4 ovarian = test system: OVCAR-4 ovarian
# PC-3 prostate = test system: PC-3 prostate
# SK-MEL-28 melanoma = test system: SK-MEL-28 melanoma
# MOLT-4 leukemia = test system: MOLT-4 leukemia
# HOP-62 NSCLC = test system: HOP-62 NSCLC
# IGROV1 ovarian = test system: IGROV1 ovarian
# U251 CNS = test system: U251 CNS
Compound,GI50 (HCT-15 colon),TGI (HCT-15 colon),GI50 (K-562 leukemia),TGI (K-562 leukemia),GI50 (UACC-62 melanoma),TGI (UACC-62 melanoma),GI50 (OVCAR-4 ovarian),TGI (OVCAR-4 ovarian),GI50 (PC-3 prostate),TGI (PC-3 prostate),GI50 (SK-MEL-28 melanoma),TGI (SK-MEL-28 melanoma),GI50 (MOLT-4 leukemia),TGI (MOLT-4 leukemia),GI50 (HOP-62 NSCLC),TGI (HOP-62 NSCLC),GI50 (IGROV1 ovarian),TGI (IGROV1 ovarian),GI50 (U251 CNS),TGI (U251 CNS)
CC(C)Cn1cnc2c(N)nc3ccccc3c21,29.7 µM,> 100 µM,> 54.7 µM,> 100 µM,38.4 µM,> 100 µM,67.2 µM,> 100 µM,34.7 µM,> 100 µM,> 74.9 µM,> 100 µM,> 64.4 µM,> 100 µM,22.5 µM,> 64.1 µM,51.8 µM,> 100 µM,47.5 µM,> 100 µM
O=C(O)c1c2c(c(O)c3c1CN(C1CCCCC1)CO3)OCN(C1CCCCC1)C2,,> 100 µM,,> 100 µM,,> 100 µM,,> 100 µM,,> 100 µM,,> 100 µM,,40.1 µM,,> 100 µM,,> 100 µM,,> 100 µM
COc1ccc(-c2cc(=O)c3c(C)ccnc3[nH]2)cc1,,> 100 µM,,> 100 µM,,32.6 µM,,> 100 µM,18.1 µM,> 100 µM,,> 100 µM,,50 µM,,92.4 µM,,> 100 µM,6.3 µM,> 100 µM
CN1CCC2(CC1)C(=O)Nc1cc(NC(=O)c3ccc4c(c3)C[C@@H]3C(C)(C)[C@H](O)[C@H](F)C[C@@]3(C)O4)ccc12,11 µM,45.8 µM,0.201 µM,> 100 µM,0.405 µM,5.13 µM,25.9 µM,> 100 µM,0.117 µM,> 100 µM,1.53 µM,14.5 µM,0.0342 µM,1.5 µM,1.04 µM,23 µM,13.1 µM,> 100 µM,0.0472 µM,16.4 µM
O=C(Nc1ccccc1/C=C/c1n[nH]c2ccccc12)c1ccccc1,2.37 µM,8.53 µM,3.47 µM,12.6 µM,2.88 µM,13 µM,9.46 µM,24.7 µM,2.15 µM,7.58 µM,4.31 µM,17.7 µM,7.27 µM,38.2 µM,2.15 µM,6.13 µM,6.47 µM,22.4 µM,1.72 µM,3.75 µM
CCOC(=O)c1sc2nc(=S)[nH]c(NC(N)=S)c2c1C,16.7 µM,39.2 µM,28.3 µM,> 100 µM,12.4 µM,26.1 µM,35.4 µM,> 100 µM,22.7 µM,94.6 µM,19 µM,41.6 µM,30.1 µM,> 100 µM,21 µM,49.7 µM,31.5 µM,> 100 µM,17.2 µM,36.8 µM
CN1CCN(c2cc(F)c(NC3=C(Cl)C(=O)c4ncccc4C3=O)c(F)c2)CC1,1.53 µM,3.06 µM,0.651 µM,> 100 µM,1.67 µM,3.17 µM,1.35 µM,2.65 µM,1.6 µM,3.74 µM,1.88 µM,3.36 µM,2.4 µM,8.83 µM,2.06 µM,5.18 µM,1.53 µM,3.37 µM,1.8 µM,3.44 µM
O=C(O)C1CCCN1 (configuration not stated),,> 100 µM,,> 100 µM,,> 100 µM,,> 100 µM,,> 100 µM,,> 100 µM,,> 100 µM,,> 100 µM,,> 100 µM,,> 100 µM
COc1cc(OC)c(OC)cc1/C=C/c1ccccn1,,> 10 µM,,> 10 µM,,> 10 µM,,> 10 µM,,> 10 µM,,> 10 µM,,> 10 µM,,> 10 µM,,> 10 µM,,> 10 µM
CC[C@@H]1C(=O)N(C)c2cnc(Nc3ccc(C(=O)NC4CCC(N5CCN(CC6CC6)CC5)CC4)cc3OC)nc2N1C(C)C (some centres not stated),0.0686 µM and 0.145 µM,> 6.64 µM and 5.33 µM,0.00946 µM and 0.0288 µM,> 10 µM and 1.83 µM,0.0356 µM and 0.0388 µM,> 8.3 µM and 13.3 µM,0.89 µM and 0.466 µM,> 10 µM and 19 µM,0.0287 µM and 0.0366 µM,> 10 µM and 17.7 µM,0.0737 µM and 0.0669 µM,2.64 µM and 3.16 µM,0.0116 µM and 0.019 µM,> 5.38 µM and 1.28 µM,0.0208 µM and 0.034 µM,> 8.64 µM and 3.93 µM,0.0418 µM and 0.0524 µM,> 10 µM and 7.22 µM,0.0263 µM and 0.0276 µM,> 7.97 µM and 2.14 µM
C[C@]12CC[C@H]3[C@@H](CCC4=CC(=O)CC[C@@]43C)[C@]1(O)CC[C@]2(O)C(=O)CO,,> 100 µM,,> 100 µM,,> 100 µM,,> 100 µM,,> 100 µM,,> 100 µM,,> 100 µM,,> 100 µM,,> 100 µM,,> 100 µM
